{"source": "paper PMC6748665", "about": "(Journal of Medicinal Chemistry, 2019)", "molecular_target": "T1, MtbTrmD (Mycobacterium tuberculosis, UniProt P9WFY7)", "T1 sequence (P9WFY7 1-230)": "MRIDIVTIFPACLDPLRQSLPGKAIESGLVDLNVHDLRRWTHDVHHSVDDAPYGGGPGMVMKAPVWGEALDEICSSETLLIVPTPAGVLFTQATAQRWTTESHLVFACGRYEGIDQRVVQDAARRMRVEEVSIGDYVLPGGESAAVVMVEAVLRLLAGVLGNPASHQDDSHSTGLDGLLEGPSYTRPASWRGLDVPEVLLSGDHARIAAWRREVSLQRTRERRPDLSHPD", "assay": "Surface plasmon resonance", "assay_type": "binding", "settings": "SPR", "data": [{"smiles": "CCCCCCCCNCc1ccc(CNC(=O)c2csc3nc[nH]c(=O)c23)cc1", "note": "[Compound 15, N-(4-((Octylamino)methyl)benzyl)-4-oxo-3,4-dihydrothieno[2,3-d]pyrimidine-5-carboxamide]", "values": [{"measurement": "lower affinity for MtbTrmD compared to the PaTrmD binding affinity", "value": "over 100 fold"}]}]}
